# Results as given in patent US8680137B2, “Agents and methods for treating ischemic and other diseases” (Nono Inc., priority 2009, dated 2014).
# pIC50: −log10 of the molar value. “Also recorded” adds a separate entry of the source. Where two headings read alike, the source gives them in different places.
# Assays:
# DMS53 Lung cancer = test: Cancer cell proliferation, DMS53; type: cell-based; conditions: >20% inhibition at 48-96 hours, MTT, SRB, luminescence or BrDU
# Protocol: (§1) To determine the breadth of efficacy in cancers, we examined the efficacy of a range of TRPM7 inhibitors for their ability to inhibit cell proliferation in cancer cell lines. Representative figures are included as examples.
# (§2) Cells (Table 1) were grown to 70% confluency, trypsinized, counted, and seeded in 96-well flat-bottom plates at a final concentration of 2.5×10^3-5.0×10^3 cells/well in growth media containing 5% FBS (Day 0). Other well sizes and cell densities were used successfully as well. Cells were allowed to incubate in growth media for 24 hours to allow for maximum adhesion. Treatment with the test agent began on Day 1 and continued for 72 hours either with or without retreatment. At the 72 hour time point, viable cell numbers are quantified by the CellTiter-Glo® cell viability assay as described above, or using standard MTT, SRB or BrDU assays. Experiments were repeated at least twice with the same concentrations to determine growth inhibitory activity.
# (§3) Data Collection—For the cell proliferation studies, data from each experiment was collected and expressed as % Cell Growth using the following calculation: % Cell Growth=(ftest/fvehicle)×100 Where ftest is the luminescent signal of the tested sample, and fvehicle is the luminescence of the vehicle in which the drug is dissolved (or appropriate measure for the other viability/proliferation measures). […]
# B16F1 melanoma cells = test: Cancer cell proliferation, B16F1; type: cell-based, mouse; conditions: B16F1, FIG. 81
# Protocol: as §1, §2, §3
# A375 melanoma = test: Cancer cell proliferation, A375; type: cell-based; conditions: Homo sapiens
# Protocol: as §1, §2
# as §3, with “measures). Dose response graphs and IC50 values were generated using standard software using the following variable slope equation:” for “measures).”
# NIH3T3 fibroblasts = test: Toxicity on NIH3T3 fibroblast cells, PI uptake after 72 hours; type: cell-based; conditions: concentrations that reduce proliferation of cancerous cells
# Protocol: To differentiate between an anti-proliferative effect of the TRPM7 inhibitors and cellular toxicity, the compounds were added to various ‘non-cancerous’ cell lines at the same concentrations and the percentage of PI uptake was measured after 72 hours.
# DMS456 lung cancer = test: Cancer cell proliferation, DMS456; type: cell-based; conditions: >20% inhibition at 48-96 hours, MTT, SRB, luminescence or BrDU
# Protocol: as §1, §2, §3
# Y79 retinoblastoma cells = test: Cancer cell proliferation, Y79; type: cell-based
# Protocol: as §1, §2
# as §3, with “measures). Dose response graphs and IC50 values were generated using standard software using the following variable slope equation:” for “measures).”
# HCT-116 colon cancer = test: Cancer cell proliferation, HCT-116; type: cell-based; conditions: for pIC50: Homo sapiens
# Protocol: as §1, §2
# as §3, with “measures). Dose response graphs and IC50 values were generated using standard software using the following variable slope equation:” for “measures).”
# U2OS osteosarcoma = test: Cancer cell proliferation, U2OS; type: cell-based; conditions: >20% inhibition at 48-96 hours, MTT, SRB, luminescence or BrDU
# Protocol: as §1, §2, §3
# [1] = system: MDA-MB231 breast cancer cells; test: Cancer cell proliferation, MDA-MB231; type: cell-based; conditions: MDA-MB231, FIG. 80
# Protocol: as §1, §2, §3
# B16F10 melanoma cells = test: Cancer cell proliferation, B16F10; type: cell-based, mouse; conditions: for proliferation: B16F10, FIG. 81; for Demonstrated Reduction of Proliferation at or below 10 μM Inhibitor concentration: B16F10, >20% inhibition at 48-96 hours, MTT, SRB, luminescence or BrDU; for pIC50: Mus musculus
# Protocol: as §1, §2
# as §3, with “measures). Dose response graphs and IC50 values were generated using standard software using the following variable slope equation:” for “measures).”
# in vivo = conditions: mouse, mice, highest dose tested, read-out: maximum tolerated dose
# RXF-393 renal = test: Cancer cell proliferation, RXF-393; type: cell-based, human; conditions: for pIC50: Homo sapiens
# Protocol: as §1, §2
# as §3, with “measures). Dose response graphs and IC50 values were generated using standard software using the following variable slope equation:” for “measures).”
# [2] = system: mixed retinal cell cultures; test: OGD in dissociated mixed rat retinal cultures; type: cell-based
# Protocol: The ability of TRPM7 inhibitors to protect other types of cell cultures following exposure to anoxia, including non-neuronal cell cultures, has also been tested. In general, cultures of growing cells are exposed to a 1-6 hour period of anoxia, followed by addition of a TRPM7 at a range of concentrations upon removal from anoxic conditions. […] This implies that TRPM7 inhibitors may be useful both as a treatment for anoxic damage to patients presenting symptoms of a disorder associated with anoxic damage, or as a preventative measure. Such preventative measures can be chronic, such as treatment to protect against damage from heart attacks or strokes, or acute, to be given prior to or during surgical procedures, which may include but not be limited to procedures that involve endovascular invasion and have the possibility of dislodging material that may block blood flow through arteries. […]
# K+ currents = K+ currents in cultured cortical neurons; type: cell-based
# Protocol: (§4) To examine selectivity of a subset of these TRPM7 inhibitors, experiments were performed to determine whether TRPM7 antagonists cross-react with other ionic channels and receptors. […] From a therapeutic perspective, knowledge of cross-reactivity of candidate drugs could shed light on other ischemic mechanisms and raise awareness of potential side effects. M21 has no effect on voltage-sensitive Na+, and Ca2+ currents in cultured cortical neurons […] TRPM7-expressing HEK293 cells, but inhibits K+ currents by about 20% at membrane potentials of −10 mV. M21 had no effect on agonist-induced Ca2+ changes in HEK293 cells transfected with constructs for TRPM2, TRPM4, TRPM6, TRPV1, TRPC2 and TRPA1. M21 also has no effect on NMDA and AMPA receptor currents in cultured neurons. […] Similar experiments were performed with other TRPM7 inhibitors including M5 and M11.
# [3] = system: voltage-sensitive Na+ currents; test: Voltage-sensitive Na+ currents in cultured cortical neurons; type: cell-based; conditions: at concentrations sufficient to inhibit TRPM7
# Protocol: as §4
# [4] = system: voltage-sensitive Ca2+ currents; test: Voltage-sensitive Ca2+ currents in cultured cortical neurons; type: cell-based; conditions: at concentrations sufficient to inhibit TRPM7
# Protocol: as §4
# [5] = system: formalin-induced pain behaviors; test: Formalin induced inflammatory pain in rats; type: in vivo, rat; conditions: i.v. administration, formalin 2.5% 50 μL plantar hindpaw
# [6] = system: LAD coronary artery ligation; test: Mouse model of permanent LAD coronary artery ligation (myocardial infarction); type: in vivo; conditions: single intravenous dose within 15 minutes of LAD occlusion
structure (smiles),measurement,setting,value
COc1cc2c(cc1OC)C(c1sc3ccccc3c1Cl)=NCC2 [Compound M6],Demonstrated Reduction of Proliferation at or below 10 μM Inhibitor concentration,DMS53 Lung cancer,DMS53 Lung cancer
same,proliferation,B16F1 melanoma cells,reduce the proliferation
same,pIC50,"A375 melanoma; A-375, 72 h, A375, Exp 1, 72 hours, read-out: IC50",4.90
same,pIC50,"A375 melanoma; A-375, 72 h, A375, Exp 2, 72 hours, read-out: IC50",4.85
same,pIC50,"A375 melanoma; A-375, A375, mean of Exp 1 and Exp 2, read-out: Mean IC50",4.87
same,toxicity (PI uptake),NIH3T3 fibroblasts,not toxic; also recorded: do not show toxicity
same,Demonstrated Reduction of Proliferation at or below 10 μM Inhibitor concentration,DMS456 lung cancer,DMS456 lung cancer
same,pIC50,"Y79 retinoblastoma cells; 72 h, Y79, Exp 1, 72 hours, read-out: IC50",4.44
same,pIC50,"Y79 retinoblastoma cells; 72 h, Y79, Exp 2, 72 hours, read-out: IC50",4.41
same,death of cancer cells by MTT assay,"Y79 retinoblastoma cells; Y79, 1-7.5 μM, 48-72 hours",resulted in the death of the cancer cells
same,pIC50,"Y79 retinoblastoma cells; Y79, mean of Exp 1 and Exp 2, read-out: Mean IC50",4.43
same,Demonstrated Reduction of Proliferation at or below 10 μM Inhibitor concentration,"HCT-116 colon cancer; HCT-116, >20% inhibition at 48-96 hours, MTT, SRB, luminescence or BrDU",HCT-116
same,pIC50,"HCT-116 colon cancer; HCT-116, 72 h, HCT-116, Exp 1, 72 hours, read-out: IC50",4.83
same,pIC50,"HCT-116 colon cancer; HCT-116, 72 h, HCT-116, Exp 2, 72 hours, read-out: IC50",4.76
same,pIC50,"HCT-116 colon cancer; HCT-116, HCT-116, mean of Exp 1 and Exp 2, read-out: Mean IC50",4.80
same,Demonstrated Reduction of Proliferation at or below 10 μM Inhibitor concentration,U2OS osteosarcoma,U2OS osteosarcoma
same,proliferation,[1],reduce proliferation
same,proliferation,B16F10 melanoma cells,reduce the proliferation
same,Demonstrated Reduction of Proliferation at or below 10 μM Inhibitor concentration,B16F10 melanoma cells,B16F10 melanoma
same,pIC50,"B16F10 melanoma cells; B16-F10, 72 h, B16-F10, Exp 1, 72 hours, read-out: IC50",4.78
same,pIC50,"B16F10 melanoma cells; B16-F10, 72 h, B16-F10, Exp 2, 72 hours, read-out: IC50",4.84
same,pIC50,"B16F10 melanoma cells; B16-F10, B16-F10, mean of Exp 1 and Exp 2, read-out: Mean IC50",4.81
same,MTD,in vivo,≥ 20 mg/kg
same,pIC50,"RXF-393 renal; RXF 393, 72 h, RXF393, Exp 1, 72 hours, read-out: IC50",5.28
same,pIC50,"RXF-393 renal; RXF 393, 72 h, RXF393, Exp 2, 72 hours, read-out: IC50",5.09
same,pIC50,"RXF-393 renal; RXF 393, RXF393, mean of Exp 1 and Exp 2, read-out: Mean IC50",5.17
same,Demonstrated Reduction of Proliferation at or below 10 μM Inhibitor concentration,"RXF-393 renal; RXF-393, >20% inhibition at 48-96 hours, MTT, SRB, luminescence or BrDU",RXF-393 renal
O=C(Nc1ccc(F)cc1)C(Sc1ccc(Cl)cc1)c1ccccc1 (stereo not shown) [Compound M11],Demonstrated Reduction of Proliferation at or below 10 μM Inhibitor concentration,DMS53 Lung cancer,DMS53 Lung cancer
same,proliferation,B16F1 melanoma cells,reduce the proliferation
same,toxicity (PI uptake),NIH3T3 fibroblasts,do not show toxicity
same,survival following exposure to OGD,[2],promote survival
same,Demonstrated Reduction of Proliferation at or below 10 μM Inhibitor concentration,U2OS osteosarcoma,U2OS osteosarcoma
same,proliferation,[1],reduce proliferation
same,proliferation,B16F10 melanoma cells,reduce the proliferation
same,Demonstrated Reduction of Proliferation at or below 10 μM Inhibitor concentration,B16F10 melanoma cells,B16F10 melanoma
same,effect on potassium currents,K+ currents,slight inhibition
same,effect on voltage-sensitive Na+ currents,[3],did not affect
same,effect on voltage-sensitive Ca2+ currents,[4],did not affect
Cc1c(Cc2ccc(Cl)c(Cl)c2)c(=O)oc2cc(O)ccc12 [Compound M21],survival following exposure to OGD,[2],promote survival
same,formalin-induced phase 1 (0-8 min) flinches,[5],little effect
same,formalin-induced phase 2 pain (9-60 min) flinches,[5],significantly reduced
same,number of cells exhibiting DNA fragmentation (TUNEL),[6],significantly reduced the number of cells exhibiting DNA fragmentation
same,infarct volume (TTC),[6]; 24 h,significantly reduced infarct volume
same,inhibition of K+ currents,K+ currents; membrane potentials of −10 mV,about 20%
same,effect on voltage-sensitive Na+ currents,[3],no effect
same,effect on voltage-sensitive Ca2+ currents,[4],no effect
